According to patent US5547972A, “Therapeutic agents useful for treating inflammatory diseases” (The Boots Company PLC, priority 1991, dated 1996):
Counter-ions that a name gives are not always drawn. Like-named read-outs stand apart in the source and are kept apart here.

What was measured:
platelet aggregation = conditions: in vitro; Il Farmaco, 44 (5), 495-502, 1989; cited from earlier work
[1] = system: Zymosan Stimulated Macrophaqes; test: Test A: Inhibition of Arachidonic Acid Release from Zymosan Stimulated Macrophages; assay type: cell-based, mouse (female MF1); conditions: inhibition of arachidonic acid release, six concentrations (100, 50, 20, 10, 5 and 1 μM), 5 h with zymosan, read-out: Test A IC50
Outline: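 Peritoneal macrophages from female MF1 mice, labelled overnight with [3H]-arachidonic acid (1.6 μCi/ml final), adherent cells pretreated 24 h with drug, then stimulated 5 h with fresh drug plus stimulus at 37° C. Released label counted by scintillation; net stimulated release inhibition at 1–100 μM gives IC50.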

[2] = system: Carrageenan-induced rat paw oedema; test: Test B: Carrageenan-induced rat paw oedema test; assay type: in vivo, rat (female); conditions: inhibition of paw oedema, 1 h before carrageenan, 3 h after injection; for Test B % inhibition at 100 mg/kg: oral; for inhibition in vivo at 100 mg/kg: Rattus norvegicus, po, 3 h
Experimental: Carrageenan-induced rat paw oedema test
Female rats, weight range 125-150 g were fasted overnight. One of the hind legs of each animal was marked with a line at the connection between the cuboid/navicular and calcaneus/talus bones. Groups of six rats were orally dosed at 10 ml/kg, in random order, with a given dose of the test compound given as a solution or suspension in 10% (w/v) aqueous acacia solution.
One hour after dosing, 0.1 ml of 1% (w/v) sterile carrageenan λ in normal saline was injected deeply into the plantar surface of the marked hind foot of each rat. The volume of the foot (up to the marked line) was measured immediately after injection using duplicate water displacement readings. Three hours after injection the foot volume was measured again and the percentage increase in foot volume relative to the initial reading was calculated.
The increase in foot volume (i.e. the degree of oedema) in drug treated animals when compared with that in the drug untreated control gave the degree of inhibition of paw oedema by the drug.
Compounds were considered to be active in this test if they produced a 20% or greater inhibition of paw oedema in at least two out of three tests after oral dosing at 100 mg/kg. Statistical significance was assessed using the Student't test for single dose studies and Dunnett's test for multiple dose studies. More advantageous compounds were active in both Tests A and B,

mice = conditions: in mice; cited from earlier work
[3] = alleged in literature; cited from earlier work

IC50 ([1]; Mus musculus, Macrophage, 5 h) [µM] | Compound | inhibition in vivo at 100 mg/kg [2] [%] | other results
– | CC(CCn1ccnc1)NCc1ccccc1 (centres unmarked) [Compound A] | – | inhibitory effect on platelet aggregation (platelet aggregation): inhibitory effect on platelet aggregation in vitro
– | CC(NCCCn1ccnc1)c1ccc(Cl)cc1.Cl.Cl (single isomer, unassigned; (-)) [Example 57, (-)N-[1-(4-Chlorophenyl)ethyl]-3-(imidazol-1-yl)propylamine dihydrochloride] | – | IC50 ([1]; dihydrochloride): 20 µM; Test B % inhibition at 100 mg/kg ([2]; dihydrochloride): 48%
60 | CC(C)(NCCCn1cncc1CO)c1ccc(Cl)cc1 [Example 88, 1-{3-[1-(4-Chlorophenyl)-1-methylethylamino]propyl}imidazol-5-yl-methanol dihydrochloride] | 6 | –
45 | CC(=O)OCc1ncn(CCCNC(C)(C)c2ccc(Cl)cc2)c1C [Example 98, 1-{3-[1-(4-chlorophenyl)-1-methylethylamino]propyl}-5-methylimidazol-4-ylmethyl acetate dihydrochloride] | 4 | –
45 | CC(NCCCn1ccnc1)c1ccc(C(F)(F)F)cc1 (centres unmarked) [Example 11, 3-(Imidazol-1-yl)-N-[1-(4-trifluoromethylphenyl)ethyl]propylamine] | 34 | –
11 | Cc1ncn(CCCNC(C)c2ccc(Cl)cc2)c1C (centres unmarked) [Example 24, N-[1-(4-Chlorophenyl)ethyl]-3-(4,5-dimethylimidazol-1-yl)propylamine dihydrochloride] | 34 | –
32 | c1ccc(C(NCCCn2ccnc2)c2ccccc2)cc1 [Example 34, N-benzhydryl-3-(imidazol-1-yl)propylamine dihydrochloride] | 47 | –
54 | CCC(CC)(NCCCn1ccnc1)c1ccccc1 [Example 80, N-(1-Ethyl-1-phenylpropyl)-3-(imidazol-1-yl)propylamine] | 52 | –
– | N-[1-(4-Chlorophenyl)ethyl]-3-(4/5-methylimidazol-1-yl)propylamine [Example 54] | – | IC50 [1]: 12 µM; Test B % inhibition at 100 mg/kg [2]: 63%
– | CC(NCCCn1ccnc1)c1ccc(Cl)cc1 (single isomer, unassigned; (-)) [Example 92, (-) N-[1-(4-chlorophenyl)ethyl]-3-(imidazol-1-yl)propylamine (-)-ditartrate] | – | IC50 [1]: 20 µM; Test B % inhibition at 100 mg/kg [2]: 48%
12 | CC(NCCCn1ccnc1)c1ccc(OCc2ccccc2)cc1 (centres unmarked) [Example 5, N-[1-(4-Benzyloxyphenyl)ethyl]-3-(imidazol-1-yl)propylamine] | 5 | –
31 | COc1cc(C)c(CNCCCn2ccnc2)c(C)c1 [Example 50, 3-(imidazol-1-yl)-N-(4-methoxy-2,6-dimethylbenzyl)propylamine dihydrochloride] | 0 | –
– | CCC(NCC(C)N1CCOCC1)c1ccc(Cl)c(Cl)c1 (stereo not drawn) [N-[2-(4-Morpholino)propyl]-α-ethyl-3,4-dichlorobenzylamine] | – | undesirable side-effects (mice): wide range of undesirable side-effects in mice; antiinflammatory activity [3]: antiinflanmmtory activity
60 | CC(NCCCn1ccnc1)c1ccc(Br)cc1 (centres unmarked) [Example 14, N-[1-(4-Bromophenyl)ethyl]-3-(imidazol-1-yl)propylamine] | 60 | –
21 | Clc1ccc(CNCCCn2ccnc2)cc1Cl [Example 35, N-(3,4-dichlorobenzyl)-3-(imidazol-1-yl)propylamine] | 47 | –
